Read-outs that look alike come from different tables or passages of the source.

We go through five molecules from patent US4347319A, “Microbiological epoxidation process” (priority 1980, dated 1982).

The test system of assay [1] is Methylomonas albus (CRL M8Y) NRRL B-11,207. The assay can be described thus: Oxidation by washed cell suspensions of methane-grown cells. It is filed as cell-based. In outline:
(§1)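 First, strains were cultured aerobically on methane at 30 °C until turbid, then pelleted and washed in phosphate buffer (0.15 M, pH 7.0). Next, 2 mg cell portions were sealed under substrate plus oxygen (1:1) and shaken at 30 °C. Finally, withdrawn samples were analysed by gas chromatography.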

Assay [2] concerns Methylobacter bovis (CRL 19 PM5) NRRL B-11,217. The assay is described as above. It is filed as cell-based. Put shortly: as §1
The test system of assay [3] is Methylomonas streptobacterium (CRL 17 PM3) NRRL B-11,208. The assay is described as above. It is filed as cell-based. Put shortly:
as §1

In assay [4] the test system is Methylosinus sporium (CRL 16 PM2) NRRL B-11,203. The description is as above. It is filed as cell-based. Put shortly: as §1
In assay [5] the test system is Methylomonas rosaceus (CRL M10P) NRRL B-11,212. It is filed as cell-based. As for the experimental part: The pH of the nutrient medium was adjusted to 7.0 by the addition of acid or base and 50 ml samples of the nutrient medium were charged into a plurality of 300 ml shaker flasks. The shaker flasks were inoculated with an inoculating loop of cells from an agar plate containing homogeneous colonies of the microorganisms on the plate (the purity of the isolates was confirmed by microscopic examination. The isolates had been maintained on agar plates under an atmosphere of methane and air having a 1:1 v/v gas ratio which had been transferred evey two weeks. The gaseous phase of the inoculated flasks was then replaced with a gas mixture comprised of methane and air having a ratio of 1:1 on a v/v basis. The inoculated flasks were sealed air tight and were incubated on a rotary shaker of orbital radius 2.5 cm at 250 rpm and at 30° C. for two days until turbidity in the medium had developed.
The cells were harvested by centrifugation at 10,000×g. at 4° C. for 30 minutes. The cell pellet was washed twice with a 0.15 M phosphate buffer at a pH of 7.0 (containing 0.002 M MgCl2). The washed cells were then suspended in a 0.15 M phosphate buffer at pH 7.0.
A 0.5 ml sample of each washed cell suspension (2 mg cells) was put into 10 ml vials at 4° C. which were sealed with a rubber cap. The gaseous phase of the vials was removed with vacuum and then was replaced with a gas mixture of the oxidative substrate (e.g., methane) and oxygen at a 1:1 v/v ratio. The vials were then incubated at 30 ° C. on a rotary shaker at 300 rpm. Samples of product (3 μl) were withdrawn periodically with a microsyringe and the products were analyzed by gas chromatography (ionization flame detector column).
The newly discovered and isolated microorganism strains of the present invention were each grown aerobically in the presence of methane in the manner described above. The methane-grown microbial cells were then washed, recovered and put to use in oxidizing an oxidative substrate by the procedure described above except in the case of a liquid substrate 10 μl of the substrate were used.

In assay [6] the target is T1, cell fractions of Methylococcus capsulatus (Texas, ATCC 19,069) (Methylococcus capsulatus, UniProt G1UBD1+Q603F1+Q607G3).
T1 sequence (G1UBD1 33-414): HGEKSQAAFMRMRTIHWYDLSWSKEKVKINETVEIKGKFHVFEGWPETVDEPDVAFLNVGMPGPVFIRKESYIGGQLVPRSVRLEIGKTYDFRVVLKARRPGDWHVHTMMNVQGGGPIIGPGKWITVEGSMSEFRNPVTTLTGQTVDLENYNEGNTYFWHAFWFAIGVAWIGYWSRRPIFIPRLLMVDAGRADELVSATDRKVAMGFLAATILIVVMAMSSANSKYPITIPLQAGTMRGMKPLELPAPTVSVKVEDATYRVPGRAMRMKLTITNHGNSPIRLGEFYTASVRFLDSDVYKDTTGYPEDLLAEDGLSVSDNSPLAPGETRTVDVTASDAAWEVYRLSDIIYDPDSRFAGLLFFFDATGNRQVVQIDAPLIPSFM
T1 sequence (Q607G3 1-247): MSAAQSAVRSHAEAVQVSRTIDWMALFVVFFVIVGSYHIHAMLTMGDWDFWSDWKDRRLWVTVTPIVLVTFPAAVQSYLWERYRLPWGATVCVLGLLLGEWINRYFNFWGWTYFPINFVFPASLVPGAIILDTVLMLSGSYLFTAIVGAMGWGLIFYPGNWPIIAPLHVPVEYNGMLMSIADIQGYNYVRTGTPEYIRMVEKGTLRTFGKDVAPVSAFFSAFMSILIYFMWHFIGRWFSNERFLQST
T1 sequence (Q603F1 1-260): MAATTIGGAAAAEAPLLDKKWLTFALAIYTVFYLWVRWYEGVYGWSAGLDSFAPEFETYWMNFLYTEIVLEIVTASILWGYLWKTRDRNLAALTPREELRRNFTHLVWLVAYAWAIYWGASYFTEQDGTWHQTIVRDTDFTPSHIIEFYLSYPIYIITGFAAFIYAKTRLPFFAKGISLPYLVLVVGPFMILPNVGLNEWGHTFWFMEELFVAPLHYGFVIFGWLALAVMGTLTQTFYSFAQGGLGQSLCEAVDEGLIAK
Description: Oxidation by cell fractions P(40), P(80), S(80). It is filed as biochemical. The following applies: for Conversion Rate: particulate P(40) fraction, n-propane to 2-propanol, n-butane to 2-butanol; for Oxidizing Activity (rate of oxidation) in cell fraction: propylene to propylene oxide, methane to methanol, 30° C.; for % Distribution in Cell Fraction: propylene-epoxidizing / methane-hydroxylating activity.

The mark [7] stands for this setting: methane-grown washed cells, 30° C., methane to methanol, alkene to 1,2-epoxide.

`C=CC=C` [Butadiene]: the “Oxidative Conversion Rates” value is 3.0 μmole/hr/mg protein in assay [1] (setting [7]); 2.3 μmole/hr/mg protein in assay [2] (setting [7]); 2.6 μmole/hr/mg protein in assay [3] (setting [7]); 2.5 μmole/hr/mg protein in assay [4] (setting [7]); 9.2 μmole/hr/mg protein in assay [5] (setting [7]).

`CCCC` [Butane]: the “Conversion Rate” value in assay [6] is reported as 0.92 μmoles/hr/2.0mg. of protein; in assay [3], 1.2 μmoles/hr/^5 mg. protein.

In the case of `C` [Methane], the “Oxidizing Activity (rate of oxidation) in cell fraction” value in assay [6] (P(40)) is on record as 3.8 μ moles of products formed per; in assay [6] (P(80)), 3.9 μ moles of products formed per; in assay [6] (S(80)), 0 μ moles of products formed per. Also, the “% Distribution in Cell Fraction” value in assay [6] (P(40)) is 90%; in assay [6] (P(80)) it was 10%; in assay [6] (S(80)), 0%. The “Oxidative Conversion Rates” value in assay [1] is given as 1.5; in assay [2] it was 2.0; in assay [3] it was 1.1; in assay [4], 1.0; in assay [5] it was 7.3.

As to `CCC` [Propane], the “Conversion Rate” value in assay [6] is recorded as 1.2 μmoles/hr/2.0mg. of protein; in assay [3] (growth substrate Methane, n-alkane to secondary alcohol) it was 1.6 μmoles/hr/^5 mg. protein.

Regarding `C=CC` [Propylene], the entries for the “Oxidizing Activity (rate of oxidation) in cell fraction” value in assay [6] (P(40)), in assay [6] (P(80)) and in assay [6] (S(80)) were 2.6 μ moles of products formed per, 2.0 μ moles of products formed per and 0 μ moles of products formed per, respectively. Also, the results for the “% Distribution in Cell Fraction” value in assay [6] (P(40)), in assay [6] (P(80)) and in assay [6] (S(80)) were 89%, 11% and 0%, respectively. The “Oxidative Conversion Rates” value in assay [1] (setting [7]) came out at 2.5 μmole/hr/mg protein; in assay [2] (setting [7]), 2.2 μmole/hr/mg protein; in assay [3] (setting [7]), 1.0 μmole/hr/mg protein; in assay [4] (setting [7]) it was 3.2 μmole/hr/mg protein; in assay [5] it was 1.41.
